Test results taken from patent US20250000837A1, “METHOD FOR TREATING RETINAL DEGENERATION” (SMILEBIOTEK ZHUHAI LIMITED, priority 2021, published 2025).

Tests used:
[1] = system: Crb1^rd8/rd8 mouse suffering from fundus degenerative retinopathy; assay: Intragastric administration therapy of Crb1^rd8/rd8 mouse suffering from fundus degenerative retinopathy; count of fundus light spots; type: in vivo; conditions: for Eyes with slight decrease of crystalline lens transparency (fundus light spots cannot be observed clearly): 0.3 g/kg intragastric; for Change of spots 4 weeks after drug administration / Change of spots 2 weeks after drug administration: change of number of fundus light spots, Crb1^rd8/rd8 mouse, mean ± s; for Change of spots 4 weeks after drug administration: 0.3 g/kg intragastric once every other day for 4 weeks, P = 0.0005 vs model control group; for Change of spots 2 weeks after drug administration: 0.3 g/kg intragastric once every other day, P = 0.1518 vs model control group
Experimental: The mouse is anaesthetized and pupils are dilated. A cornea remains moist by applying hydroxypropyl methylcellulose eye drops regularly. A mouse fundus photo is obtained by using a Micron IV mouse fundus camera (Phoenix Research Laboratories, Inc., Pleasanton, CA, USA).
When a sample for test is prepared, 4 mL of castor oil which is already autoclaved is measured, 1.2 g of compound 6 powder is weighted, 1-2 mL of castor oil is added, full grinding is performed, a ground drug and residual castor oil are all transferred to a 50 mL tube with 36 mL ultrapure water to be oscillated and uniformly mixed for still standing overnight, so a compound 6 suspension with a concentration being 30 mg/mL is prepared, and the prepared drug liquid is labeled, saved at a normal temperature and used up within a month.
• Species and strains: Crb1^rd8/rd8 mouse • Grade: SPF grade • Quantity and gender: 18 mice, either gender • Weight range: 16-24 g • Supply unit: Gempharmatech Co., Ltd.
When drug administration starts, a healthy one-month-old Crb1^rd8/rd8 mouse is selected for an experiment.
Animals are hierarchically divided according to weights and then randomly divided into a model control group and a compound 6 group.
Drug administration route and method: intragastric administration, 10.0 mL/kg weight
Drug administration frequency and time limit: once every other day, for 4 weeks
Dosage of the compound 6 is 0.3 g/kg weight for the mouse and is converted according to previous clinical medication.
One-month-old Crb1^rd8/rd8 mice are randomly divided into the model control group and the compound 6 drug administration group. A solvent or a compound 6 drug is administered intragastrically to the animals, a dosage of the compound 6 is 0.3 g/kg, once every other day, continuous drug administration for 4 weeks. The number of fundus light slots 2 weeks and 4 weeks after the mouse is administered intragastrically is recorded for analysis and comparison.
A change of the number of fundus light spots of the mice at each time point after drug administration is used as a parameter, and SPSS software is used for the statistic analysis. A statistical result is represented by X+s; and an inspection level=0.05, and an average of experiment data and statistically processed data remain 2 decimal places.

[2] = system: drusen-like lesion in retinal tissue of a macaque; conditions: administered to vitreous humor; cited from earlier work

Row | Structure (SMILES) | Inhibition of fundus degenerative retinopathy ([1]; Crb1^rd8/rd8 mice, dosage of 0.3 g/kg) | Eyes with slight decrease of crystalline lens transparency (fundus light spots cannot be observed clearly) ([1]; Week 2 of the experiment, attributed to anesthesia, correlation with compound not excluded) | Eyes with slight decrease of crystalline lens transparency (fundus light spots cannot be observed clearly) ([1]; Week 4 of the experiment, 1/18 eye also in model control group) | Change of spots 4 weeks after drug administration [1] | Change of spots 4 weeks after drug administration ([1]; listed as compound 6) | Change of spots 2 weeks after drug administration [1] | Change of spots 2 weeks after drug administration ([1]; listed as compound 6) | Size of the drusen-like lesion in retinal tissue compared with a control [2]
1 | CCCCCCCCOC(=O)c1cc(O)c(O)c(O)c1 [Compound 6, octyl gallate] | effectively inhibit | 2/18 | 1/18 | −3.63 ± 4.06 | −3.63±4.06 | 1.31 ± 3.18 | 1.31±3.18 | –
2 | CN[C@H](CC(C)C)C(=O)N[C@H]1C(=O)N[C@@H](CC(N)=O)C(=O)N[C@H]2C(=O)N[C@H]3C(=O)N[C@H](C(=O)N[C@H](C(=O)O)c4cc(O)cc(O)c4-c4cc3ccc4O)[C@H](O)c3ccc(c(Cl)c3)Oc3cc2cc(c3O[C@@H]2O[C@H](CO)[C@@H](O)[C@H](O)[C@H]2O[C@H]2C[C@](C)(N)[C@H](O)[C@H](C)O2)Oc2ccc(cc2Cl)[C@H]1O [vancomycin] | – | – | – | – | – | – | – | reduce a size of the drusen-like lesion
